Experimental data taken from article PMC9065678, “BI 1015550 is a PDE4B Inhibitor and a Clinical Drug Candidate for the Oral Treatment of Idiopathic Pulmonary Fibrosis” (Frontiers in Pharmacology, 2022).
pIC50: −log10 of the molar value.

Assays:
[1] = test system: LPS-induced neutrophil influx into the BALF; experiment: LPS-induced neutrophil influx into the BALF of Suncus murinus; format: in vivo
Source text: Compared with other animal species used to study emesis induction by PDE4 inhibitors, like ferrets, dogs, minipigs, or monkeys, Suncus murinus allows the testing of a sufficient number of animals to provide a high statistical power. […] Male Suncus murinus (weight 50–55 g) from Boehringer Ingelheim (Biberach an der Riss, Germany) or male Wistar rats (200–250 g, Charles River), eight animals per group, were used. […] For this purpose, animals in the positive control and treatment groups were put into a circular Plexiglas chamber with 16 pie-like compartments for one animal each, and were consecutively exposed to nebulized LPS for 30 min. The LPS solution used for nebulization contained 1 mg/mL LPS in phosphate-buffered saline (PBS). Nebulization was performed with the commercially available PARI Master® nebulizer with a PARI Master® LL adapter (Pari GmbH, Starnberg, Germany). 4 h after LPS exposure, the animals were anesthetized and euthanized by cervical dislocation. After sacrifice, the trachea was cannulated and bronchoalveolar lavage was performed by instilling and re-aspirating two-times 1 mL (Suncus murinus) or 5 mL (rat) lavage buffer (PBS +2% bovine serum albumin). BALF volumes were recorded manually. Determination of neutrophil numbers in BALF was performed using a blood hemacytometer (Sysmex XT-1800i, Kobe, Japan).

[2] = test system: LPS-stimulated IL-6 release; experiment: LPS-stimulated IL-6 release in rat whole blood; format: cell-based; details: high concentrations
Protocol: (§1) Heparinized whole blood was collected from the Aorta abdominalis of WI (Han) male rats (Charles River Laboratories, Sulzfeld, Germany) and from healthy male human donors, and treated with 1 µL (rat) or 2.5 µL (human) of BI 1015550 or vehicle [final DMSO concentration 0.5% (v/v)]. Final assay volumes were 200 μL (rat) and 500 μL (human). After incubation for 30 min at 37°C, 95% humidity, and 5% CO2, cultures were treated with LPS [final concentration 10 µg/mL (rat), 0.1 µg/mL (human)] or saline. After 7 h, plates were centrifuged at 3.200 × g at 4°C for 10 min and plasma was used for cytokine measurement. Meso Scale Discovery (MSD) (Rockville, MD, United States) rat and human pro-inflammatory panels were used for detection of TNF-α and IL-6 in rat plasma [diluted 1:2 (v/v)]) and human plasma [negative control undiluted, other samples diluted 1:200 (v/v)] according to the manufacturer’s instructions.

[3] = test system: LPS-stimulated IL-6 release; experiment: LPS-stimulated IL-6 release in human whole blood; format: cell-based; details: high concentrations
Protocol: as §1

FN mRNA expression = experiment: TGF-β-induced FN mRNA expression in IPF lung fibroblasts (Taqman); format: cell-based, human; details: IPF-LF, TGF-β 4 ng/mL, 48 h
Protocol: Fibroblasts from donors with IPF (IPF-LF) (Asterand, Detroit, MI, United States) were grown in fibroblast basal medium (CC-3131, Lonza Walkersville, Inc., Walkersville, MD, United States) supplemented with FGM-2 SingleQuot Kit Supplements and Growth Factors (CC-4126, Lonza). Cells were grown in a humidified incubator at 37°C and 5% CO2. All assays were performed at passage 7 or 8. For assay set-up, cells were seeded in fibroblast growth medium plus supplements in assay-relevant densities. For TGF-β-stimulated assays, cells were seeded at 4,500 cells per well in 96-well plates. Proliferation assays were performed in 96-well plates at an initial seeding cell density on day 0 of 2,000 cells per well. After 24-h, the cell culture medium was changed to starvation medium (fibroblast basal medium without supplements). […]
For determination of Col1A1, Col3A1, and FN mRNA expression, IPF-LF cells were stimulated with TGF-β (4 ng/mL) for 48 h. […] Quantitative real-time polymerase chain reactions were set up using the TaqMan™ Fast Advanced Master Mix (Applied Biosystems, Carlsbad, CA, United States) and species-specific gene expression assays: Col1A1 #Hs00164004_m1 FAM, Col3A1 #Hs0094309_m1 FAM, FN #Hs01549976_m1 FAM, 18S #4310893E. […] Fold-change of gene expression was calculated by the Viia7 software (regulation based upon housekeeper).

[4] = test system: LPS-stimulated TNF-α release; experiment: LPS-induced TNF-α release in human whole blood; format: cell-based; details: LPS 0.1 µg/mL
Protocol: as §1

`[O-][S+]1CCc2nc(N3CCC(c4ncc(Cl)cn4)CC3)nc(NC3(CO)CCC3)c21` (stereo not shown) [BI 1015550] was tested, and the “Neutrophils in BALF, inhibition in % given as negative number” value ([1]; 0.1 mg/kg p.o.) was −23%, the “Neutrophils in BALF, inhibition in % given as negative number” value ([1]; 0.3 mg/kg p.o.) was −36% and the “Neutrophils in BALF, inhibition in % given as negative number” value ([1]; 1.0 mg/kg p.o.) was −59%. The “ED50 LPS-induced BALF neutrophils” value ([1]; oral, 30 min before nebulized LPS) was 0.6 mg/kg, the “Increase of IL-6 compared with LPS-treated samples without PDE4 inhibitor” value [2] was “fourfold” and the IL-6 increase [3] was “did not result in an IL-6 increase”. The “Maximum inhibition of IL-6 release” value [3] was 30–40%, the pIC50 (FN mRNA expression) was 6.61 and the pIC50 [4] was 6.17. The “Maximal inhibition of TNF-α release” value [4] was 70–80%.
